Earlier results as cited in patent publication US9987252B2, “Primary amines and derivitves thereof as modulators of the 5-HT2A serotonin receptor useful for the treatment of disorders related thereto” (Arena Pharmaceuticals, Inc., priority 2006, dated 2018).

Tested on: diabetic rats
Details: 19.8% sciatic motor conduction deficit in diabetic rats

Compound | correction of sciatic motor conduction deficit
O=CN1CCC(C(=O)NCCN2CCC(=C3c4ccccc4C=Cc4ccccc43)CC2)CC1 [AT-1015] | 82.6-99.7%
Cc1nc2sccn2c(=O)c1CCN1CCC(=C(c2ccc(F)cc2)c2ccc(F)cc2)CC1 [ritanserin] | 82.6-99.7%
COc1cccc(CCc2ccccc2OCC(CN(C)C)OC(=O)CCC(=O)O)c1 (stereo not drawn) [sarpogrelate] | 82.6-99.7%
